ChEMBL document CHEMBL1150924, “Triterpenes and saponins from Rudgea viburnioides” (J Nat Prod, 1998)
Calls of active or inactive are those of the source. The rule behind the calls is not given here.

How the values were obtained:
Format in all cases: functional, organism-based
[1] = test system: Cladosporium cladosporioides; experiment: Antifungal activity against Cladosporium cladosporioides at 1 ug by TLC bioassay
[2] = test system: Cladosporium cladosporioides; experiment: Antifungal activity against Cladosporium cladosporioides at 50 ug by TLC bioassay
[3] = test system: Cladosporium cladosporioides; experiment: Antifungal activity against Cladosporium cladosporioides at 5 ug by TLC bioassay

In the case of `Clc1ccc(COC(Cn2ccnc2)c2ccc(Cl)cc2Cl)c(Cl)c1` (stereo not drawn), the Activity [1] is reported as “Active”.

In the case of `C[C@@H]1CC[C@]2(C)CC[C@]3(C)C(=CC[C@@H]4[C@@]5(C)C[C@@H](O)[C@H](O)C(CO)(CO)[C@@H]5CC[C@]43C)[C@@H]2[C@]1(C)O`, the Activity [2] is reported as “Active”.

NYSTATIN was tested, and the Activity [3] was “Active”.
